Test results taken from US6417177B1, “Chloroquine derivatives for the treatment of Parkinson's disease” (Alpha Research Group, LLC, priority 1999, dated 2002).

Columns and labels:
[1] = molecular target: T1, diamine oxidase (Homo sapiens, UniProt P19801); assay: in vitro comparison of chloroquine phosphate enantiomers for inhibition of diamine oxidase; assay type: biochemical; conditions: compared between enantiomers of chloroquine phosphate
T1 sequence (P19801 20-751): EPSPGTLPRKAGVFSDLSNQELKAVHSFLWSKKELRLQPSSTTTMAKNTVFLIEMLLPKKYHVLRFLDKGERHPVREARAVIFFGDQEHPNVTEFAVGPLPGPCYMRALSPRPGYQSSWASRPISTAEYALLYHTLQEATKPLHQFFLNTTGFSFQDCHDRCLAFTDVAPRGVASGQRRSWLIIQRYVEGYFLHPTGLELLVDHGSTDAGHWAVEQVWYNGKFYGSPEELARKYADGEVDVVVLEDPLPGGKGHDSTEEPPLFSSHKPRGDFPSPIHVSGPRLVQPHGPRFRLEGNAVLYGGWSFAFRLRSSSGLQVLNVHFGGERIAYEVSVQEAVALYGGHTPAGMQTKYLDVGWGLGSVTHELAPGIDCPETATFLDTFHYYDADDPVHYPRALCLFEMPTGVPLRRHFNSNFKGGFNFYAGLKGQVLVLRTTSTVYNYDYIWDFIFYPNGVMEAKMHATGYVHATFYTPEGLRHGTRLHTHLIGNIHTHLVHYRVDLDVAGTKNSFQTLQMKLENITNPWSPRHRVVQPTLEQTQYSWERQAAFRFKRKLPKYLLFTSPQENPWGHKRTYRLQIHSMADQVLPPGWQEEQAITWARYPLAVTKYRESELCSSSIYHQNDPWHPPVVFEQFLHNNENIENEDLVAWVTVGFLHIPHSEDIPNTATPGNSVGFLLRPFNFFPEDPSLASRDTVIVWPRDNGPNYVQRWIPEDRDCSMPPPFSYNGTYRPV
Method: (§1) Enantiomers of chloroquine phosphate were isolated according to the procedure of Stalcup, A. M. et al. (1996), Analytical Chemistry 68:2248-50. Comparisons of these enantiomers with respect to ability to inhibit diamine oxidase and bind to neuromelanin are performed in vitro.

[2] = in vitro comparison of chloroquine phosphate enantiomers for binding to neuromelanin; conditions: compared between enantiomers of chloroquine phosphate
Method: as §1

[3] = test system: Parkinson's Disease; conditions: cited from earlier work

Structure (SMILES)	ability to inhibit diamine oxidase [1]	ability to bind neuromelanin [2]	delay of the need to commence L-DOPA treatment ([3]; American researchers)	increase in patient mortality ([3]; co-administered with L-DOPA, compared to the group treated with L-DOPA only)	neural protection ([3]; two-year patient follow-up examinations)
CCN(CC)CCCC(C)Nc1ccnc2cc(Cl)ccc12 (single isomer, unassigned) [active enantiomer]	significantly enhanced ability	significantly enhanced ability			
C#CCN(C)[C@H](C)Cc1ccccc1 [Deprenyl]			up to nine months	60%	no neural protection was found
